These are literature values, as cited in patent US12295958B2, “Ready-to-use injectable formulations” (Zoetis Services LLC, priority 2019, dated 2025).

For series [1] the following is noted: clinical studies.
The next series deals with S. intermedius. The following applies: dogs, single injection, S. intermedius infections.
The test system of a further series is S. canis. The following applies: dogs, single injection, S. canis infections.
The subject of a further series is Pasteurella multocide. The following applies: cats, single injection, Pasteurella multocide infections.

Structures can show the parent of a compound that is named as a salt. Where two headings read alike, the source gives them in different places.

In the case of `CO/N=C(\C(=O)N[C@@H]1C(=O)N2C(C(=O)O)=C([C@@H]3CCCO3)CS[C@H]12)c1csc(N)n1` [Convenia, (6R,7R)-7-[[(2Z)-(2-amino-4-thiazolyl)(methoxyimino)acetyl]amino]-8-oxo-3-[(2S)-tetrahydro-2-furanyl]-5-thia-1-azabicyclo[4.2.0]oct-2-ene-2-carboxylic acid, monosodium salt], the “clinical equivalence of a single injection” value in series [1] is recorded as “clinically equivalent to a 14-day oral antibiotic regimen”. Besides, the figures for the “time therapeutic drug concentrations are maintained” value with S. intermedius and in the series with S. canis were “approximately 7 days” and “about 14 days”, respectively. Also, the “time therapeutic dose concentrations are provided” value in the series on Pasteurella multocide is reported as “approximately 7 days”.

For `CCN(CC)CCOC(=O)[C@@H]1N2C(=O)[C@@H](NC(=O)Cc3ccccc3)[C@H]2SC1(C)C` [penethamate], the caking after transport result (0.15% Tween and ethyl oleate, glass bottles, transported by road (about 2 hours) and air (about 1 hour)) is ““rock solid” cake”. Also, the caking result is, setting by setting: (PVP K30 in addition with 0.5% Tween 80) “did not solve the caking problem”; (addition of 0.5% Tween) “hard cake”; (addition of 0.5% polyethylene glycol-12-oleate) “prevented caking”. Besides, the resuspendability result (ethyl oleate suspension without Tween 80) is “required vigorous shaking and vortexing to disperse the cake”; the resuspendability entry (ethyl oleate, 0.15% Tween 80 as flocculating agent) was “good resuspendability”. Besides, where the note is “increasing concentrations of phospholipids (Lipoid S100), suspensions containing PEG-12-oleate”, the dispersability of sediment result is “less dispersable sediments”. Also, the caking on vibration entry (long chain fatty acid mixture with addition of phospholipid) is “caking on vibration”. Moreover, the redispersion after vibration entry was “dispersed readily” (suspension in mixture of long chain saturated and unsaturated fatty acids); “difficult to redisperse after vibration” (suspensions in Miglyol 840 and Miglyol 812).
